Results from the supplement of paper PMC10627819.

Assays:
S. pneumoniae D39V [1] = assay: fitness (endpoint OD595 vs no drug) (fraction); higher = more growth
How it was run: (§1)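 Cultures at OD595 0.01 were dispensed into 384-well plates in TSB, LB Lennox or CY and incubated at 37 °C. Every 30 min for 14 h, OD595 was read and corrected by the first reading. Fitness is the optical density at entry into stationary phase relative to the robust mean of no-drug control wells, capped at 1.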

S. aureus Newman [2] = assay: as above
How it was run: as §1

B. subtilis 168 = assay: Bliss interaction score (quartile over a dose matrix) (fitness difference); higher = more antagonism (negative = synergy)
How it was run: (§2)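 Each plate was normalised to the robust mean of its own no-drug wells, using OD595 at entry into stationary phase, with values capped at 1. This normalised growth is the fitness value. The Bliss score is the difference between observed and product-expected fitness, with single-drug fitness inferred from the combination data and quartiles taken over technical, biological and donor/recipient replicates.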

S. pneumoniae D39V [3] = assay: as above
How it was run: as §2

S. aureus DSM 20231 = assay: as above
How it was run: as §2

S. aureus Newman [4] = assay: as above
How it was run: as §2
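For Bliss interaction score (quartile over a dose matrix) in this document: first quartile when negative (synergy) and third quartile when positive (antagonism).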

CC1(C)S[C@@H]2[C@H](NC(=O)[C@H](N)c3ccc(O)cc3)C(=O)N2[C@H]1C(=O)O [Amoxicillin] + CN(C)c1cc(NC(=O)CNC(C)(C)C)c(O)c2c1C[C@H]1C[C@H]3[C@H](N(C)C)C(O)=C(C(N)=O)C(=O)[C@@]3(O)C(O)=C1C2=O [Tigecycline]
fitness, S. pneumoniae D39V [1], one replicate
Conditions	partner 0.325 µg/mL	partner 0.65 µg/mL	partner 1.3 µg/mL
first compound 0.0008 µg/mL	0.969	–	–
first compound 0.006 µg/mL	0.386	0.449	0.458

Conditions	fitness
S. aureus Newman [2], first compound 0.0625 µg/mL, partner 0.039 µg/mL	0.892
S. aureus Newman [2], first compound 0.0625 µg/mL, partner 0.078 µg/mL	0.903
S. aureus Newman [2], first compound 0.0625 µg/mL, partner 0.156 µg/mL	0.884
S. aureus Newman [2], first compound 0.125 µg/mL, partner 0.039 µg/mL	0.875
S. aureus Newman [2], first compound 0.125 µg/mL, partner 0.078 µg/mL	0.922
S. aureus Newman [2], first compound 0.125 µg/mL, partner 0.156 µg/mL	0.862
S. aureus Newman [2], first compound 0.25 µg/mL, partner 0.039 µg/mL	0.799
S. aureus Newman [2], first compound 0.25 µg/mL, partner 0.078 µg/mL	0.867
S. aureus Newman [2], first compound 0.25 µg/mL, partner 0.156 µg/mL	0.817
S. pneumoniae D39V [1], first compound 0.0008 µg/mL, partner 0.65 µg/mL	0.928
S. pneumoniae D39V [1], first compound 0.0008 µg/mL, partner 1.3 µg/mL	≥ 1
S. pneumoniae D39V [1], first compound 0.0008 µg/mL, partner 2.6 µg/mL	0.968
S. pneumoniae D39V [1], first compound 0.0015 µg/mL, partner 0.325 µg/mL	0.941
S. pneumoniae D39V [1], first compound 0.0015 µg/mL, partner 0.65 µg/mL	0.942
S. pneumoniae D39V [1], first compound 0.0015 µg/mL, partner 1.3 µg/mL	0.994
S. pneumoniae D39V [1], first compound 0.0015 µg/mL, partner 2.6 µg/mL	0.956
S. pneumoniae D39V [1], first compound 0.003 µg/mL, partner 0.325 µg/mL	0.904
S. pneumoniae D39V [1], first compound 0.003 µg/mL, partner 0.65 µg/mL	0.921
S. pneumoniae D39V [1], first compound 0.003 µg/mL, partner 1.3 µg/mL	0.944
S. pneumoniae D39V [1], first compound 0.003 µg/mL, partner 2.6 µg/mL	0.877

Conditions	Bliss interaction score
B. subtilis 168	-0.0604
S. aureus DSM 20231	-0.0322
S. aureus Newman [4]	0.0642
S. pneumoniae D39V [3]	0.0424

CC1(C)S[C@@H]2[C@H](NC(=O)[C@H](N)c3ccc(O)cc3)C(=O)N2[C@H]1C(=O)O [Amoxicillin] + C/C(=C\C(=O)OCCCCCCCCC(=O)O)C[C@@H]1OC[C@H](C[C@@H]2O[C@H]2[C@@H](C)[C@H](C)O)[C@@H](O)[C@H]1O [Pseudomonic acid]
fitness, S. pneumoniae D39V [1]
Conditions	first compound 0.0008 µg/mL	first compound 0.0015 µg/mL	first compound 0.003 µg/mL
partner 0.03 µg/mL	0.888	0.974	0.932
partner 0.06 µg/mL	0.838	0.822	0.882
partner 0.12 µg/mL	0.586	0.68	–

fitness, one replicate
Conditions	partner 0.03 µg/mL	partner 0.0313 µg/mL	partner 0.06 µg/mL	partner 0.0625 µg/mL	partner 0.12 µg/mL	partner 0.125 µg/mL
S. aureus Newman [2], first compound 0.0625 µg/mL	–	0.0402	–	0.0188	–	0.0414
S. aureus Newman [2], first compound 0.125 µg/mL	–	0.0188	–	0.0167	–	0.0327
S. aureus Newman [2], first compound 0.25 µg/mL	–	0.0112	–	0.0059	–	0.0163
S. pneumoniae D39V [1], first compound 0.006 µg/mL	0.577	–	0.64	–	0.283	–

Conditions	Bliss interaction score
B. subtilis 168	0.0663
S. aureus DSM 20231	0.0169
S. aureus Newman [4]	-0.031
S. pneumoniae D39V [3]	0.121

CC1(C)S[C@@H]2[C@H](NC(=O)[C@H](N)c3ccc(O)cc3)C(=O)N2[C@H]1C(=O)O [Amoxicillin] + CN[C@@H]1[C@H](O[C@H]2[C@H](O[C@H]3[C@H](O)[C@@H](O)[C@H](N=C(N)N)[C@@H](O)[C@@H]3N=C(N)N)O[C@@H](C)[C@]2(O)C=O)O[C@@H](CO)[C@H](O)[C@H]1O [Streptomycin]
fitness
Conditions	first compound 0.0008 µg/mL	first compound 0.0015 µg/mL	first compound 0.003 µg/mL	first compound 0.0625 µg/mL	first compound 0.125 µg/mL	first compound 0.25 µg/mL
S. aureus Newman [2], partner 1 µg/mL	–	–	–	0.857	0.856	0.845
S. aureus Newman [2], partner 2 µg/mL	–	–	–	0.823	0.792	0.798
S. pneumoniae D39V [1], partner 2 µg/mL	0.979	0.931	0.899	–	–	–
S. pneumoniae D39V [1], partner 4 µg/mL	0.947	0.877	0.866	–	–	–
S. pneumoniae D39V [1], partner 8 µg/mL	0.968	0.929	0.895	–	–	–

one replicate
Conditions	fitness
S. aureus Newman [2], first compound 0.0625 µg/mL, partner 8 µg/mL	0.0265
S. aureus Newman [2], first compound 0.125 µg/mL, partner 8 µg/mL	0.0373
S. aureus Newman [2], first compound 0.25 µg/mL, partner 8 µg/mL	0.0414
S. pneumoniae D39V [1], first compound 0.0008 µg/mL, partner 16 µg/mL	0.807
S. pneumoniae D39V [1], first compound 0.0015 µg/mL, partner 16 µg/mL	0.749
S. pneumoniae D39V [1], first compound 0.003 µg/mL, partner 16 µg/mL	0.724
S. pneumoniae D39V [1], first compound 0.006 µg/mL, partner 2 µg/mL	0.488
S. pneumoniae D39V [1], first compound 0.006 µg/mL, partner 4 µg/mL	0.413
S. pneumoniae D39V [1], first compound 0.006 µg/mL, partner 8 µg/mL	0.274

Conditions	Bliss interaction score
B. subtilis 168	-0.054
S. aureus DSM 20231	-0.0777
S. aureus Newman [4]	-0.0764
S. pneumoniae D39V [3]	0.0594

CC1(C)S[C@@H]2[C@H](NC(=O)[C@H](N)c3ccc(O)cc3)C(=O)N2[C@H]1C(=O)O [Amoxicillin] + CC(C1CCC(C(O1)OC2C(CC(C(C2O)OC3C(C(C(CO3)(C)O)NC)O)N)N)N)NC [Gentamicin]
fitness, main component drawn
Conditions	partner 0.375 µg/mL	partner 0.5 µg/mL	partner 0.75 µg/mL	partner 1 µg/mL	partner 1.5 µg/mL	partner 2 µg/mL	partner 4 µg/mL	partner 8 µg/mL
S. aureus Newman [2], first compound 0.0625 µg/mL	0.91	0.878	0.896	0.911	0.892	0.972	–	–
S. aureus Newman [2], first compound 0.125 µg/mL	0.984	0.851	≥ 1	0.899	0.974	0.968	–	–
S. aureus Newman [2], first compound 0.25 µg/mL	0.983	0.858	0.944	0.847	0.961	–	–	–
S. pneumoniae D39V [1], first compound 0.0008 µg/mL	–	–	–	–	–	0.977	0.935	0.942
S. pneumoniae D39V [1], first compound 0.0015 µg/mL	–	–	–	–	–	0.988	0.94	0.946
S. pneumoniae D39V [1], first compound 0.003 µg/mL	–	–	–	–	–	0.926	0.9	0.851

fitness, one replicate, main component drawn
Conditions	partner 2 µg/mL	partner 4 µg/mL	partner 8 µg/mL
S. aureus Newman [2], first compound 0.0625 µg/mL	–	0.0669	–
S. aureus Newman [2], first compound 0.125 µg/mL	–	0.0478	–
S. aureus Newman [2], first compound 0.25 µg/mL	–	0.0624	–
S. pneumoniae D39V [1], first compound 0.006 µg/mL	0.587	0.634	0.508

main component drawn
Conditions	Bliss interaction score
B. subtilis 168	-0.0767
S. aureus DSM 20231	0.0684
S. aureus Newman [4]	0.0602
S. pneumoniae D39V [3]	0.055

CC1(C)S[C@@H]2[C@H](NC(=O)[C@H](N)c3ccc(O)cc3)C(=O)N2[C@H]1C(=O)O [Amoxicillin] + CO/N=C(\C(=O)N[C@@H]1C(=O)N2C(C(=O)O)=C(COC(N)=O)CS[C@H]12)c1ccco1 [Cefuroxime]
fitness, S. aureus Newman [2], one replicate
Conditions	first compound 0.0625 µg/mL	first compound 0.125 µg/mL	first compound 0.25 µg/mL
partner 0.04875 µg/mL	0.944	0.932	0.841
partner 0.0975 µg/mL	0.895	0.804	0.747
partner 0.195 µg/mL	0.895	0.805	0.772

Conditions	Bliss interaction score
B. subtilis 168	0.0792
S. aureus DSM 20231	-0.127
S. aureus Newman [4]	0.097
S. pneumoniae D39V [3]	0.0491
